From patent US20260256792A1, “TREATMENT OF CHRONIC SPONTANEOUS URTICARIA BY ADMINISTERING (R)-2-[3-[4-AMINO-3-(2-FLUORO-4-PHENOXY-PHENYL)PYRAZOLO[3,4-D]PYRIMIDIN-1-YL]PIPERIDINE-1-CARBONYL]-4-METHYL-4-[4-(OXETAN-3-YL)PIPERAZIN-1-YL]PENT-2-ENENITRILE” (priority 2023, published 2026)

System: moderate-to-severe chronic spontaneous urticaria (CSU)
Assay: Phase 2 CSU study: itch severity score over 7 days (ISS7)
Type: in vivo, human
Conditions: for Non-responder n (%) (ISS7 reduction of 5 points or more) / OR for rilzabrutinib vs. placebo (ISS7 reduction of 5 points or more) / Responder n (%) (ISS7 reduction of 5 points or more) / Imputed non-responder n (%) (ISS7 reduction of 5 points or more) / RRD (%) for rilzabrutinib vs. placebo (ISS7 reduction of 5 points or more): Omalizumab-Naïve Population; for ISS7 Post-baseline Mean (SD): Omalizumab-Naïve, outlier removed
Description: The study comprises a 12 week, randomized, double-blind, placebo-controlled, multi-center, dose-ranging efficacy and safety phase, followed by a 40 week open label extension (OLE) phase (see FIG. 1). The study consists of three phases and an optional OLE phase. […] Clinically, CSU is characterized by the spontaneous and recurrent appearance of pruritic hives. The proposed primary endpoints were the UAS7 at Week 12 in EU and EU reference countries and the ISS7 in the US. Regardless of where a participant was from, all assessments were the same. The UAS7 score is a composite score containing both the HSS7 and the ISS7. This allowed a global assessment of the two key components of urticaria: hives and itch. […] The UAS is a validated PRO measure. […] The daily UAS scores range from 0 to 6 point/day. […] Patients were to complete the UAS using the e-diary. […] The following secondary endpoints were to be analyzed using the same approach as for the primary endpoint: • Change from baseline in UAS7 at Week 4 • Change from baseline in UAS7 at Week 12 (for US and US reference countries) • Change from baseline in ISS7 at Week 12 (except US and US reference countries) • Change from baseline in HSS7 at Week 12

## CC(C)(C=C(C#N)C(=O)N1CCC[C@@H](n2nc(-c3ccc(Oc4ccccc4)cc3F)c3c(N)ncnc32)C1)N1CCN(C2COC2)CC1 [rilzabrutinib, (R)-2-[3-[4-amino-3-(2-fluoro-4-phenoxy-phenyl)pyrazolo[3,4-d]pyrimidin-1-yl]piperidine-1-carbonyl]-4-methyl-4-[4-(oxetan-3-yl)piperazin-1-yl]pent-2-enenitrile]
400 mg QPM, Week 10
  Non-responder n (%) (ISS7 reduction of 5 points or more): 14 (37.8) n (%)
  OR for rilzabrutinib vs. placebo (ISS7 reduction of 5 points or more): 1.614
  Responder n (%) (ISS7 reduction of 5 points or more): 23 (62.2) n (%)
  ISS7 Post-baseline Mean (SD): 10.43 (5.30)
400 mg QPM, Week 11
  Imputed non-responder n (%) (ISS7 reduction of 5 points or more): 7 (18.9) n (%)
  Non-responder n (%) (ISS7 reduction of 5 points or more): 17 (45.9) n (%)
  OR for rilzabrutinib vs. placebo (ISS7 reduction of 5 points or more): 0.932
  RRD (%) for rilzabrutinib vs. placebo (ISS7 reduction of 5 points or more): −1.7%
  Responder n (%) (ISS7 reduction of 5 points or more): 20 (54.1) n (%)
  ISS7 Post-baseline Mean (SD): 11.03 (5.55)
400 mg QPM, Week 12
  Imputed non-responder n (%) (ISS7 reduction of 5 points or more): 10 (27.0) n (%)
  Non-responder n (%) (ISS7 reduction of 5 points or more): 21 (56.8) n (%)
  OR for rilzabrutinib vs. placebo (ISS7 reduction of 5 points or more): 0.851
  RRD (%) for rilzabrutinib vs. placebo (ISS7 reduction of 5 points or more): −4.2%
  Responder n (%) (ISS7 reduction of 5 points or more): 16 (43.2) n (%)
400 mg TID, Week 1
  Imputed non-responder n (%) (ISS7 reduction of 5 points or more): 0 n (%)
  Non-responder n (%) (ISS7 reduction of 5 points or more): 13 (37.1) n (%)
  OR for rilzabrutinib vs. placebo (ISS7 reduction of 5 points or more): 5.851
  RRD (%) for rilzabrutinib vs. placebo (ISS7 reduction of 5 points or more): 40.1%
  Responder n (%) (ISS7 reduction of 5 points or more): 22 (62.9) n (%)
400 mg TID, Week 2
  Imputed non-responder n (%) (ISS7 reduction of 5 points or more): 0 n (%)
  Non-responder n (%) (ISS7 reduction of 5 points or more): 12 (34.3) n (%)
  OR for rilzabrutinib vs. placebo (ISS7 reduction of 5 points or more): 4.876
  RRD (%) for rilzabrutinib vs. placebo (ISS7 reduction of 5 points or more): 36.4%
  Responder n (%) (ISS7 reduction of 5 points or more): 23 (65.7) n (%)
400 mg TID, Week 3
  Imputed non-responder n (%) (ISS7 reduction of 5 points or more): 0 n (%)
  Non-responder n (%) (ISS7 reduction of 5 points or more): 12 (34.3) n (%)
  OR for rilzabrutinib vs. placebo (ISS7 reduction of 5 points or more): 3.637
  RRD (%) for rilzabrutinib vs. placebo (ISS7 reduction of 5 points or more): 34.3%
  Responder n (%) (ISS7 reduction of 5 points or more): 23 (65.7) n (%)
400 mg TID, Week 4
  Imputed non-responder n (%) (ISS7 reduction of 5 points or more): 3 (8.6) n (%)
  Non-responder n (%) (ISS7 reduction of 5 points or more): 11 (31.4) n (%)
  OR for rilzabrutinib vs. placebo (ISS7 reduction of 5 points or more): 2.777
  RRD (%) for rilzabrutinib vs. placebo (ISS7 reduction of 5 points or more): 25.1%
  Responder n (%) (ISS7 reduction of 5 points or more): 24 (68.6) n (%)
400 mg TID, Week 5
  Imputed non-responder n (%) (ISS7 reduction of 5 points or more): 2 (5.7) n (%)
  Non-responder n (%) (ISS7 reduction of 5 points or more): 10 (28.6) n (%)
  OR for rilzabrutinib vs. placebo (ISS7 reduction of 5 points or more): 2.535
  RRD (%) for rilzabrutinib vs. placebo (ISS7 reduction of 5 points or more): 22.7%
  Responder n (%) (ISS7 reduction of 5 points or more): 25 (71.4) n (%)
400 mg TID, Week 6
  Imputed non-responder n (%) (ISS7 reduction of 5 points or more): 4 (11.4) n (%)
  Non-responder n (%) (ISS7 reduction of 5 points or more): 15 (42.9) n (%)
  OR for rilzabrutinib vs. placebo (ISS7 reduction of 5 points or more): 1.563
  Responder n (%) (ISS7 reduction of 5 points or more): 20 (57.1) n (%)
400 mg TID, Week 7
  Imputed non-responder n (%) (ISS7 reduction of 5 points or more): 5 (14.3) n (%)
  Non-responder n (%) (ISS7 reduction of 5 points or more): 11 (31.4) n (%)
  OR for rilzabrutinib vs. placebo (ISS7 reduction of 5 points or more): 2.715
  RRD (%) for rilzabrutinib vs. placebo (ISS7 reduction of 5 points or more): 23.5%
  Responder n (%) (ISS7 reduction of 5 points or more): 24 (68.6) n (%)
400 mg TID, Week 8
  Imputed non-responder n (%) (ISS7 reduction of 5 points or more): 7 (20.0) n (%)
  Non-responder n (%) (ISS7 reduction of 5 points or more): 12 (34.3) n (%)
  OR for rilzabrutinib vs. placebo (ISS7 reduction of 5 points or more): 1.891
  RRD (%) for rilzabrutinib vs. placebo (ISS7 reduction of 5 points or more): 16.1%
  Responder n (%) (ISS7 reduction of 5 points or more): 23 (65.7) n (%)
400 mg TID, Week 9
  Imputed non-responder n (%) (ISS7 reduction of 5 points or more): 6 (17.1) n (%)
  Non-responder n (%) (ISS7 reduction of 5 points or more): 11 (31.4) n (%)
  OR for rilzabrutinib vs. placebo (ISS7 reduction of 5 points or more): 2.956
  RRD (%) for rilzabrutinib vs. placebo (ISS7 reduction of 5 points or more): 25.1%
  Responder n (%) (ISS7 reduction of 5 points or more): 24 (68.6) n (%)
400 mg TID, Week 10
  Imputed non-responder n (%) (ISS7 reduction of 5 points or more): 5 (14.3) n (%)
  Non-responder n (%) (ISS7 reduction of 5 points or more): 12 (34.3) n (%)
  OR for rilzabrutinib vs. placebo (ISS7 reduction of 5 points or more): 1.910
  RRD (%) for rilzabrutinib vs. placebo (ISS7 reduction of 5 points or more): 15.5%
  Responder n (%) (ISS7 reduction of 5 points or more): 23 (65.7) n (%)
400 mg TID, Week 11
  Imputed non-responder n (%) (ISS7 reduction of 5 points or more): 4 (11.4) n (%)
  Non-responder n (%) (ISS7 reduction of 5 points or more): 10 (28.6) n (%)
  OR for rilzabrutinib vs. placebo (ISS7 reduction of 5 points or more): 1.951
  RRD (%) for rilzabrutinib vs. placebo (ISS7 reduction of 5 points or more): 15.5%
  Responder n (%) (ISS7 reduction of 5 points or more): 25 (71.4) n (%)
400 mg TID, Week 12
  Imputed non-responder n (%) (ISS7 reduction of 5 points or more): 8 (22.9) n (%)
  Non-responder n (%) (ISS7 reduction of 5 points or more): 15 (42.9) n (%)
  OR for rilzabrutinib vs. placebo (ISS7 reduction of 5 points or more): 1.469
  Responder n (%) (ISS7 reduction of 5 points or more): 20 (57.1) n (%)
400 mg BID, Week 2
  ISS7 Post-baseline Mean (SD): 10.32 (5.64)
400 mg BID, Week 3
  ISS7 Post-baseline Mean (SD): 9.16 (6.09)
400 mg BID, Week 4
  ISS7 Post-baseline Mean (SD): 8.32 (6.02)
400 mg BID, Week 5
  ISS7 Post-baseline Mean (SD): 8.88 (6.81)
400 mg BID, Week 6
  ISS7 Post-baseline Mean (SD): 8.85 (6.40)
400 mg BID, Week 7
  ISS7 Post-baseline Mean (SD): 8.21 (6.16)
400 mg BID, Week 8
  ISS7 Post-baseline Mean (SD): 7.33 (6.55)
400 mg BID, Week 9
  ISS7 Post-baseline Mean (SD): 7.63 (7.11)
400 mg BID, Week 10
  ISS7 Post-baseline Mean (SD): 8.17 (7.29)
400 mg BID, Week 11
  ISS7 Post-baseline Mean (SD): 7.93 (6.94)
400 mg BID, Week 12
  ISS7 Post-baseline Mean (SD): 8.09 (6.95)
400 mg QPM, Week 1
  ISS7 Post-baseline Mean (SD): 13.08 (4.52)
400 mg QPM, Week 3
  ISS7 Post-baseline Mean (SD): 11.60 (4.68)
400 mg QPM, Week 4
  ISS7 Post-baseline Mean (SD): 11.39 (4.79)
400 mg QPM, Week 5
  ISS7 Post-baseline Mean (SD): 11.00 (4.68)
400 mg QPM, Week 6
  ISS7 Post-baseline Mean (SD): 10.27 (5.26)
400 mg QPM, Week 7
  ISS7 Post-baseline Mean (SD): 10.68 (5.34)
400 mg QPM, Week 8
  ISS7 Post-baseline Mean (SD): 10.72 (5.26)
